Values of other authors in US20200147064A1, “Reduction of Pro-Inflammatory HDL Using a Leukotriene Inhibitor” (Autoimmune Pharma LLC, priority 2017, published 2020).

Test system: leukotriene production
Conditions: statement in words, cited from Stock, N S et al., J Med Chem. 2011

## CCOc1ccc(-c2ccc(Cn3c(CC(C)(C)C(=O)O)c(SC(C)(C)C)c4cc(OCc5ccc(C)cn5)ccc43)cc2)cn1 [Compound 2-107, 3-[3-tert-butylsulfanyl-1-[4-(6-ethoxy-pyridin-3-yl)-benzyl]-5-(5-methyl-pyridin-2-ylmethoxy)-1H-indol-2-yl]-2,2-dimethyl-propionic acid]
  inhibitor of leukotriene production in vivo: potent inhibitor of leukotriene production in vivo
